This assay concerns P388 leukemia ip, CD2F1 mice, survival T/C. Briefly: NCI In Vivo Anticancer Drug Screen. Data for tumor model P388 Leukemia (intraperitoneal) in CD2F1 (CDF1) mice. The following applies: endpoint: median survival time, higher = longer survival. The procedure: The antitumor activity of compounds was measured in mice bearing transplantable tumors. Survival or tumor size were measured and the results are expressed as the measurement made in the treated group (T) divided by the measurement made in the vehicle treated control group (C). The tumor model used in this assay is P388 Leukemia (intraperitoneal) in CD2F1 (CDF1) mice

The mark [1] stands for this setting: dose: 50.0 mg/kg/injection, schedule: Q01DX009 (ip), vehicle: Klucel (hydroxypropylcellulose) (HPC).
Setting [2] is: dose: 100.0 mg/kg/injection, schedule: Q01DX009 (ip), vehicle: Klucel (hydroxypropylcellulose) (HPC).
[3] abbreviates: dose: 200.0 mg/kg/injection, schedule: Q01DX009 (ip), vehicle: Klucel (hydroxypropylcellulose) (HPC).
Where [4] appears, read: dose: 50.0 mg/kg/injection, schedule: Q01DX005 (ip), vehicle: Klucel (hydroxypropylcellulose) (HPC).
[5] abbreviates: dose: 100.0 mg/kg/injection, schedule: Q01DX005 (ip), vehicle: Klucel (hydroxypropylcellulose) (HPC).
The mark [6] stands for this setting: dose: 200.0 mg/kg/injection, schedule: Q01DX005 (ip), vehicle: Klucel (hydroxypropylcellulose) (HPC).
Where [7] appears, read: dose: 50.0 mg/kg/injection, schedule: Q01DX009 (ip), vehicle: saline with Tween-80.
Setting [8] is: dose: 50.0 mg/kg/injection, schedule: Q01DX005 (ip), vehicle: saline with Tween-80.
[9] abbreviates: dose: 100.0 mg/kg/injection, schedule: Q01DX005 (ip), vehicle: saline with Tween-80.
Setting [10] is: dose: 200.0 mg/kg/injection, schedule: Q01DX005 (ip), vehicle: saline with Tween-80.

Values joined by “and” are separate entries in the source; they are usually repeats but may differ in a detail not shown here. Equal entries are not always repeated. Toxic doses and inconclusive results are not listed.

`CC(=O)OCCN1CCN(CC/C=C2\c3ccccc3Sc3ccc(Cl)cc32)CC1`: the T/C reads like this: (dose: 6.25 mg/kg/injection, schedule: Q01DX009 (ip), vehicle: saline with Tween-80) 109 % of control; (dose: 12.5 mg/kg/injection, schedule: Q01DX009 (ip), vehicle: saline with Tween-80) 113 % of control; (dose: 25.0 mg/kg/injection, schedule: Q01DX009 (ip), vehicle: saline with Tween-80) 113 % of control.
Consider `CC(CN(C)C)Oc1ccccc1NC1=C(Cl)C(=O)C(Nc2ccccc2OC(C)CN(C)C)=C(Cl)C1=O` (configuration not stated), for which the T/C reads like this: (dose: 10.0 mg/kg/injection, schedule: Q01DX009 (ip), vehicle: saline) 108 % of control and 115 % of control; (dose: 20.0 mg/kg/injection, schedule: Q01DX009 (ip), vehicle: saline) 115 % of control and 118 % of control.
Take `CCOC(=O)CC1(C)NCCS1` (configuration not stated): the T/C is, setting by setting: (dose: 50.0 mg/kg/injection, schedule: Q01DX009 (ip), vehicle: saline) 96 % of control; (dose: 100.0 mg/kg/injection, schedule: Q01DX009 (ip), vehicle: saline) 99 % of control; (dose: 200.0 mg/kg/injection, schedule: Q01DX009 (ip), vehicle: saline) 96 % of control.
With `Nn1cnc2nc[nH]c2c1=O`, the T/C by setting is: (dose: 100.0 mg/kg/injection, schedule: Q01DX001 (ip), vehicle: saline with Tween-80) 101 % of control; (dose: 200.0 mg/kg/injection, schedule: Q01DX001 (ip), vehicle: saline with Tween-80) 104 % of control; (dose: 400.0 mg/kg/injection, schedule: Q01DX001 (ip), vehicle: saline with Tween-80) 95 % of control.
With `Cc1ccccc1C1=NC2(CCCCC2)N=C1NN`, the T/C reads like this: under setting [1], 104 % of control; under setting [2], 98 % of control; under setting [3], 91 % of control.
As for `COc1ccc2c(C)c3[n+](cc2c1OC)CCc1cc2c(cc1-3)OCO2`, the T/C runs as follows: (dose: 0.4 mg/kg/injection, schedule: Q01DX005 (ip), vehicle: saline) 95 % of control; (dose: 0.78 mg/kg/injection, schedule: Q04DX003 (ip), vehicle: water) 102 % of control; (dose: 0.8 mg/kg/injection, schedule: Q01DX005 (ip), vehicle: saline) 101 % of control; (dose: 1.56 mg/kg/injection, schedule: Q04DX003 (ip), vehicle: water) 103 % of control; (dose: 1.6 mg/kg/injection, schedule: Q01DX005 (ip), vehicle: saline) 107 % of control; (dose: 3.13 mg/kg/injection, schedule: Q04DX003 (ip), vehicle: water) 106 % of control. The T/C reads like this: (dose: 6.25 mg/kg/injection, schedule: Q04DX003 (ip), vehicle: water) 97 % of control; (dose: 12.5 mg/kg/injection, schedule: Q04DX003 (ip), vehicle: water) 97 % of control.
Consider `COc1cc2c(C)cc(=O)oc2c(OCC(O)CN2CCCC2)c1OC` (configuration not stated), for which the T/C was 96 % of control (dose: 60.0 mg/kg/injection, schedule: Q01DX005 (ip), vehicle: saline) and 99 % of control (dose: 120.0 mg/kg/injection, schedule: Q01DX005 (ip), vehicle: saline).
As for `CSC1=NN(C(C)=O)C(c2ccncc2)S1` (configuration not stated), the T/C reads like this: under setting [4], 96 % of control; under setting [5], 97 % of control; under setting [6], 92 % of control.
As for `CC(CC(N)C(=O)O)C(=O)O` (configuration not stated), the T/C was 103 % of control (dose: 50.0 mg/kg/injection, schedule: Q01DX005 (ip), vehicle: saline); 103 % of control under setting [1]; 98 % of control (dose: 100.0 mg/kg/injection, schedule: Q01DX005 (ip), vehicle: saline); 102 % of control under setting [2]; 100 % of control (dose: 200.0 mg/kg/injection, schedule: Q01DX005 (ip), vehicle: saline); 103 % of control under setting [3]. Also, for the setting “dose: 400.0 mg/kg/injection, schedule: Q01DX009 (ip), vehicle: Klucel (hydroxypropylcellulose) (HPC)”, the T/C was 103 % of control.
For the compound `CC(O[Si](C)(C)C(C)(C)C)C(=O)Sc1ccccn1` (configuration not stated), the T/C reads like this: (dose: 60.0 mg/kg/injection, schedule: Q01DX005 (ip), vehicle: saline with Tween-80) 102 % of control; (dose: 120.0 mg/kg/injection, schedule: Q01DX005 (ip), vehicle: saline with Tween-80) 103 % of control.
As for `[Cl][Sn]([Cl])([c]1ccccc1)[c]1ccccc1.c1ccc2nc(-c3ccc4ccccc4n3)ccc2c1`, the T/C is 100 % of control and 106 % of control (dose: 7.5 mg/kg/injection, schedule: Q01DX005 (ip), vehicle: Klucel (hydroxypropylcellulose) (HPC)); 100 % of control and 113 % of control (dose: 15.0 mg/kg/injection, schedule: Q01DX005 (ip), vehicle: Klucel (hydroxypropylcellulose) (HPC)); 104 % of control and 117 % of control (dose: 30.0 mg/kg/injection, schedule: Q01DX005 (ip), vehicle: Klucel (hydroxypropylcellulose) (HPC)).
Turning to `COc1ccc(-c2c3c(c(O)c4cc5c(cc24)OCO5)COC3=O)cc1OC`, the T/C is, setting by setting: (dose: 12.5 mg/kg/injection, schedule: Q01DX009 (ip), vehicle: Klucel (hydroxypropylcellulose) (HPC)) 95 % of control; (dose: 25.0 mg/kg/injection, schedule: Q01DX009 (ip), vehicle: Klucel (hydroxypropylcellulose) (HPC)) 104 % of control; under setting [1], 99 % of control; under setting [2], 105 % of control.
Take `COc1ccc(CC2C(=O)NC(C)C(=O)N(C)C3Cc4ccc(cc4)Oc4cc(ccc4OC)CC(C(=O)NC(C)C(=O)NC(C)C(=O)N2C)N(C)C3=O)cc1` (configuration not stated): the T/C reads like this: (dose: 0.5 mg/kg/injection, schedule: Q01DX009 (ip), vehicle: none) 161 % of control; (dose: 1.0 mg/kg/injection, schedule: Q01DX009 (ip), vehicle: none) 152 % of control; (dose: 2.0 mg/kg/injection, schedule: Q01DX009 (ip), vehicle: none) 190 % of control.
For `O=C(Nc1ccc(C2=NCCCN2)cc1)Nc1cccc(C(=O)Nc2ccc(C3=NCCCN3)cc2)c1`, the T/C was 100 % of control (dose: 1.5 mg/kg/injection, schedule: Q01DX009 (ip), vehicle: saline with Tween-80); 109 % of control (dose: 3.0 mg/kg/injection, schedule: Q01DX009 (ip), vehicle: saline with Tween-80); 104 % of control (dose: 12.5 mg/kg/injection, schedule: Q04DX003 (ip), vehicle: saline with Tween-80); 163 % of control (dose: 16.5 mg/kg/injection, schedule: Q01DX009 (ip), vehicle: saline with Tween-80); 118 % of control (dose: 25.0 mg/kg/injection, schedule: Q04DX003 (ip), vehicle: saline with Tween-80); 90 % of control under setting [7]. For the same compound, the T/C (dose: 50.0 mg/kg/injection, schedule: Q04DX003 (ip), vehicle: saline with Tween-80) was 118 % of control.
With `CCOC(=O)C(NC(C)=O)(C(=O)OCC)c1ccc(N)cn1`, the T/C by setting is: (dose: 100.0 mg/kg/injection, schedule: Q04DX003 (ip), vehicle: saline) 99 % of control; (dose: 200.0 mg/kg/injection, schedule: Q04DX003 (ip), vehicle: saline) 103 % of control; (dose: 400.0 mg/kg/injection, schedule: Q04DX003 (ip), vehicle: saline) 98 % of control.
For `CCC(C)P(=O)(N1CC1)N1CC1` (configuration not stated), the T/C by setting is: (dose: 6.25 mg/kg/injection, schedule: Q01DX009 (ip), vehicle: saline) 109 % of control; (dose: 6.25 mg/kg/injection, schedule: Q04DX003 (ip), vehicle: saline) 113 % of control; (dose: 25.0 mg/kg/injection, schedule: Q01DX009 (ip), vehicle: saline) 154 % of control; (dose: 25.0 mg/kg/injection, schedule: Q04DX003 (ip), vehicle: saline) 190 % of control.
For `CC1(C)COC(=O)/C1=C/C#N`, the T/C under setting [4] was 106 % of control, the T/C under setting [5] is 98 % of control and the T/C under setting [6] is 90 % of control.
In the case of `CCC(=O)C(=O)CC1CC(c2ccco2)=Nc2ccccc2S1` (configuration not stated), the T/C was 111 % of control under setting [8], 113 % of control under setting [9] and 102 % of control under setting [10].
Turning to `CC(=O)CC(=O)CCCCCCCCCCCC(=O)O`, the T/C runs as follows: under setting [7], 94 % of control; (dose: 100.0 mg/kg/injection, schedule: Q01DX009 (ip), vehicle: saline with Tween-80) 98 % of control; (dose: 200.0 mg/kg/injection, schedule: Q01DX009 (ip), vehicle: saline with Tween-80) 103 % of control.
`C=CCSCC1Nc2cc(Cl)c(S(N)(=O)=O)cc2S(=O)(=O)N1C` (configuration not stated): the T/C runs as follows: under setting [8], 100 % of control; under setting [9], 105 % of control; under setting [10], 101 % of control.

The values above are taken from PubChem BioAssay AID330 (DTP/NCI, 2004).
